Measured values reported in EP1056700B1, “MEDICINAL USES OF PHENYLALKANOLS AND DERIVATES” (ZingoTX Pty Ltd, priority 1997, dated 1999).

Experiments:
rat mesenteric artery = test: Vasodilation on rat mesenteric small arteries; settings: for EC50: Rattus norvegicus, relaxation of small arteries (200-300 µm) precontracted with endothelin; for relaxation of rat mesenteric artery: result in words
Source text: Small arteries (200-300 µm in diameter) isolated from rat mesentery were precontracted with endothelin prior to addition of the test substances and tested for relaxation.

DRG neuronal cells = test: Peak [Ca^2+]i transients in cultured dorsal root ganglion neurons (Fura-2); assay type: cell-based, rat; settings: 10 µM applied for 1 min, 2 mM Ca^2+
Experimental: DRG from neonatal (3-5 days old) rat or adult Sprague-Dawley rats were incubated in Hanks CMF saline with 0.05% collagenase and 0.25% trypsin for 25 min at 37° C. Individual cells were obtained by trituration with fire polished Pasteur pipettes of diminishing diameters. Neurones were isolated from the cell suspension in 30% Percoll and then plated on collagen coated coverslips or in 24-well plates, then cultured in neurobasal medium with B27 supplement, 50 ng/ml 2.5 S nerve growth factor, 2 mM 1-glutamine and 100 U/ml penicillin/streptomycin. Cultures were maintained at 37° C with 5% CO2. 30% Percoll increases the percentage of capsaicin-sensitive DRG neurones up to 70%. For peak [Ca^2+]i transients measurements, cells on coverslips were incubated with 5 µM Fura-2 AM for 30 min at 37° C. The coverslips were then mounted on a chamber attached to a fast sample application perfusion system which allows changing solutions in the second range. Recordings were made on the stage of a Nikon Diaphot inverted microscope fitted with a Nikon 40 x Fluo (NA 0.85) DL Ph3 or 40 x Fluo (NA 1.3) oil objective. [Ca^2+]i was calculated from dual excitation wavelength (340/380 nm) fluorescence measurements following an intracellular calibration procedure by the Grynkiewicz equation, using MCID M2/M4 v.3.0 (Imaging Res. Inc.) software. Cells were continuously perfused with a solution consisting of 140 mM NaCl, 2 mM CaCl2, 5 mM KCl, 20 mM HEPES, 10 mM glucose, pH 7.4. To study KCl evoked depolarisation, 50 mM NaCl was replaced by equimolar KCl. Cytoplasmic localisation of Fura-2 was tested with the Mn^2+ quenching technique (Dedov and Roufogalis, 1998). All experiments were performed at room temperature (20-23°C).
Typical changes in [Ca^2+]i upon depolarisation were evoked by 50 mM KCl and by application of 1 µM capsaicin; both were applied for 30 sec. Capsaicin-evoked peak [Ca^2+]i transients are characterised by a fast rise and long-steady state [Ca^2+]i clearance from the cytoplasm. In capsaicin-sensitive cells the half-time of cytoplasmic Ca^2+ clearance was proportional to the amplitudes of peak [Ca^2+]i transients.
To examine the effect of gingerol derivatives, one or several compounds in succession at a concentration of 10 µM were applied for 1 min to the DRG neuronal cells followed by washing out for 4 min with physiological solution. To the capsaicin-sensitive cells, 10 µM capsaicin and 50 mM KCl were applied, respectively, to confirm the viability of the cells. In addition, morphological appearances of the cells were also examined at the end of experiment. […]

guinea pig atria = test: Organ bath assay on isolated guinea pig atria (rate and force of contraction); settings: guinea pig atria; for HEART RATE / FORCE OF CONTRACT^n: result in words
Procedure, shortened: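 Atria from 3-4-week-old male guinea pigs mounted in Krebs-Henseleit solution gassed with carbogen, under 1 g tension, stabilised 20 min. Rate and force of contraction recorded. Compounds in DMSO tested up to 50 µM maximum, final DMSO 2.5 %.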

SR Ca^2+-ATPase = target: T1, SR Ca^2+-ATPase (Canis lupus familiaris, UniProt O46674); test: Sarcoplasmic reticulum Ca^2+-ATPase assay; assay type: biochemical, dog; settings: for SR Ca^2+-ATPase Activity: 0 µM = 100, dog cardiac SR; for IC50: read-out: SR Ca^2+-ATPase IC50 = conc. for 50% inhibition
T1 construct: Effect of gingerols and their derivatives on the Ca^2+-ATPase activity of dog cardiac SR; from tissue; host or cells: dog heart (cardiac sarcoplasmic reticulum)
Experimental: A portion at each concentration (54 µl) was aliquoted into 4 designated wells of the microplate (two of four wells were controls). Each well was mixed with ATP solution (20 mM, 6 µl), except the controls, using an 8 channel pipette. The controls were assayed in the absence of ATP or calcium.
The plate was incubated with the lid on, for 30 min at 37°C, colour reagent (160 µl) was then added and mixed with citrate solution (34%, 30 µl). The plate was developed at room temperature for 30 min then absorbance at 655 nm was read from the microplate reader. The Ca^2+-ATPase activity was quantitated, from a Pi standard curve, as concentration of liberated inorganic phosphate.
Stock solutions (10 mM) of test substance were prepared in DMSO, then series dilutions were made either in DMSO or in 1M HEPES to produce the dose-response concentrations. The maximum concentration of DMSO in the final assay solution was 2.5%.
Each concentration of test substance was assayed in duplicate in the presence and absence of ATP or calcium. Phosphate standards are run on each plate as follows:
Effect of gingerols and their derivatives on the Ca^2+-ATPase activity of dog cardiac SR.

Platelet rich plasma = test: Platelet aggregation: [^3H]-serotonin release from platelet rich plasma, arachidonic acid initiated; assay type: cell-based; settings: Homo sapiens, activation by EC50 concentration of arachidonic acid
Experimental: Blood was collected from healthy volunteers who had taken no medication in the previous two weeks. The anticoagulant used was 3.8 % trisodium citrate. Platelet rich plasma was prepared and incubated with [^3H]-serotonin. This was followed by addition of gingerol analogues. Platelet activation was initiated using the EC50 concentration for arachidonic acid. The percentage of [^3H]-serotonin release was measured using a liquid scintillation counter. Then, dose-response curves were established and IC50 values were obtained.

T1 sequence (O46674 whole entry): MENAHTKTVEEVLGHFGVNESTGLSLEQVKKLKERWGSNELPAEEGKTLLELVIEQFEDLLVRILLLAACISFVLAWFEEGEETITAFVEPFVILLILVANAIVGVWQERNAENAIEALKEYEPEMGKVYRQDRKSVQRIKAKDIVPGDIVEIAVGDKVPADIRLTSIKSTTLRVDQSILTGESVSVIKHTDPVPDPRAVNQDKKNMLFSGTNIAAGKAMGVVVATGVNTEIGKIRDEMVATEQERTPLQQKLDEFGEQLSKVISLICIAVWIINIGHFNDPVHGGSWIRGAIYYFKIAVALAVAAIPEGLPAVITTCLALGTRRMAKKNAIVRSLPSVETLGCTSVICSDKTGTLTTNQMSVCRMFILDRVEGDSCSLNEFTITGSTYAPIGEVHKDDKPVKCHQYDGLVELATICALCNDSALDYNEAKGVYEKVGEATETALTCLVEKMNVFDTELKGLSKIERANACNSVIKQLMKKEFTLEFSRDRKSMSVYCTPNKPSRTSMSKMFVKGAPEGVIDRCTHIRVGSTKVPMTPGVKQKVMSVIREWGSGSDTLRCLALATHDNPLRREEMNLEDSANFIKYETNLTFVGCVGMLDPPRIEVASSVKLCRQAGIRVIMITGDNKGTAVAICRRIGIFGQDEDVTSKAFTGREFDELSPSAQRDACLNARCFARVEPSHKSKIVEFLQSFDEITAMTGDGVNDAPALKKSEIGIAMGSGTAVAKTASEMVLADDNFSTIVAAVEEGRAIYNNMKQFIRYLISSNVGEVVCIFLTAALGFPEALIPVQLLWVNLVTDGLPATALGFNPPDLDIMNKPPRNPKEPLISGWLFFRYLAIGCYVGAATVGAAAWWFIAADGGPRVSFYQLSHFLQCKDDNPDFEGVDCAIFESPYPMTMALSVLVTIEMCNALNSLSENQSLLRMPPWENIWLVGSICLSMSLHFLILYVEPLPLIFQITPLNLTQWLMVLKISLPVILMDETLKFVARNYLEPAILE

Row | SMILES | Number of capsaicin-sensitive cells responding (DRG neuronal cells) | Peak [Ca^2+]i (Average ±SD) (DRG neuronal cells) [nM] | HEART RATE (guinea pig atria) | SR Ca^2+-ATPase Activity (SR Ca^2+-ATPase; 5 µM) | SR Ca^2+-ATPase Activity (SR Ca^2+-ATPase; 10 µM) | SR Ca^2+-ATPase Activity (SR Ca^2+-ATPase; 25 µM) | SR Ca^2+-ATPase Activity (SR Ca^2+-ATPase; 50 µM) | IC50 (SR Ca^2+-ATPase) [µM] | FORCE OF CONTRACT^n (guinea pig atria) | SR Ca^2+-ATPase ↑ increase or stimulation (SR Ca^2+-ATPase; @ 50 µM) | SR Ca^2+-ATPase Activity (SR Ca^2+-ATPase; 1 µM) | IC50 (Platelet rich plasma) [µM] | also measured
1 | CCCCCCCC(O)CC(=O)CCc1ccc2c(c1)OCO2 (stereo not shown) [5-hydroxy-1-(3,4-methylenedioxyphenyl)dodecan-3-one] | 2 | 225 ± 78 | – | – | – | – | – | – | – | – | – | – | EC50 (rat mesenteric artery): 0.69 µM; relaxation of rat mesenteric artery (rat mesenteric artery): showed potency
2 | CCCCCCCC(O)CCCCc1ccc(O)c(OC)c1 (stereo not shown) [1-(4-hydroxy-3-methoxyphenyl)dodecan-5-ol] | 0 out of 5 | 0 | ↑weakly | 113 | 136 | 158 | 126 | ~25 | – | – | – | – | FORCE OF CONTRACT^n ↑ increase (guinea pig atria; @ 30 (µM)): ↑79% @ 30; SR Ca^2+-ATPase Activity (SR Ca^2+-ATPase; 100 µM): 87; SR Ca^2+-ATPase Activity (SR Ca^2+-ATPase; 200 µM): 18; SR Ca^2+-ATPase ↑ increase or stimulation (SR Ca^2+-ATPase; @ 25 µM): ↑57% @ 25
3 | CCCCCCCC(=O)CC(O)CCc1ccc(O)c(OC)c1 (stereo not shown) [3-hydroxy-1-(4-hydroxy-3-methoxyphenyl)dodecan-5-one] | 5 | 167 ± 105 | – | – | – | – | – | > 100 | – | – | – | – | EC50 (rat mesenteric artery): 0.04 µM; relaxation of rat mesenteric artery (rat mesenteric artery): showed potency; FORCE OF CONTRACT^n ↑ increase (guinea pig atria; @ 5 (µM)): ↑270% @ 5; FORCE OF CONTRACT^n ↑ increase (guinea pig atria; @ 10 (µM)): ↑130% @ 10; HEART RATE ↑ increase (guinea pig atria; @ 10 (µM)): ↑30% @ 10
4 | CCCCCCCC(O)CC(=O)CCc1ccc(OC)c(O)c1 (stereo not shown) [[8]-isogingerol, 5-hydroxy-1-(3-hydroxy-4-methoxyphenyl)dodecan-3-one, reference compound] | 2 | 281 ± 42 | inactive | – | – | – | – | > 100 | inactive | ↑64% @ 50 | – | – | –
5 | CCCCCCCC(O)CC(=O)CCc1ccc(O)cc1 (stereo not shown) [[8]-demethoxygingerol, 5-hydroxy-1-(4-hydroxyphenyl)dodecan-3-one] | 2 | 243 ± 71 | inactive | – | – | – | – | > 100 | inactive | ↑60% @ 50 | – | – | –
6 | CCCCCC(O)CC(=O)CCc1ccc(O)c(OC)c1 (stereo not shown) [[6]-gingerol, 5-hydroxy-1-(4-hydroxy-3-methoxyphenyl)decan-3-one, reference compound] | – | – | – | 120 | 117 | 137 | 160 | > 100 | – | ↑60% @ 50 | 121 | 73.8 ± 6.6 | FORCE OF CONTRACT^n ↑ increase (guinea pig atria; @ 50 (µM)): ↑86% @ 50; HEART RATE ↑ increase (guinea pig atria; @ 50 (µM)): ↑10% @ 50
7 | CCCCCCCC(O)CC(O)CCc1ccc(O)c(OC)c1 (stereo not shown) [[8]-gingerdiol, 1-(4-hydroxy-3-methoxyphenyl)dodecane-3,5-diol, reference compound] | 2 | 246 ± 35 | inactive | – | – | – | – | > 100 | inactive | ↑54% @ 50 | – | 82.6 ± 9 | –
8 | CCCCCCCC(O)CC(=O)CCc1ccc(O)c(OC)c1 (stereo not shown) [[8]-gingerol, 5-hydroxy-1-(4-hydroxy-3-methoxyphenyl)dodecan-3-one, reference compound] | 7 | 279 ± 111 | – | 158 | 165 | 200 | 139 | ~100 | – | – | 139 | 70.4 ± 3.8 | FORCE OF CONTRACT^n ↑ increase (guinea pig atria; @ 3 (µM)): ↑160% @ 3; HEART RATE ↑ increase (guinea pig atria; @ 3 (µM)): ↑31% @ 3; time to increased cardiac contractility after addition of the drug (guinea pig atria): 15 s; SR Ca^2+-ATPase ↑ increase or stimulation (SR Ca^2+-ATPase; @ 25 µM): ↑100% @ 25
9 | CCCCCCCC(O)CC(=O)CCc1cccc(OC)c1O (stereo not shown) [[8]-orthogingerol, 5-hydroxy-1-(2-hydroxy-3-methoxyphenyl)dodecan-3-one] | 2 | 245 ± 64 | inactive | – | – | – | – | > 100 | inactive | – | – | – | SR Ca^2+-ATPase ↑ increase or stimulation (SR Ca^2+-ATPase; @ 100 µM): ↑40% @ 100
10 | CCCCCCCC(O)CC(=O)C=Cc1ccc(O)c(OC)c1 (stereo not shown) [[8]-dehydrogingerol, 5-hydroxy-1-(4-hydroxy-3-methoxyphenyl)dodecan-1-ene-3-one, reference compound] | – | – | – | 88 | 92 | 95 | 65 | ~50 | – | – | 93 | – | FORCE OF CONTRACT^n ↑ increase (guinea pig atria; @ 25 (µM)): ↑80% @ 25; HEART RATE ↑ increase (guinea pig atria; @ 25 (µM)): ↑17% @ 25; time for tension to reach maximum after addition of a dose (guinea pig atria): a few mins; inhibition at 50 µM (SR Ca^2+-ATPase; @ 50 µM, read-out: SR Ca^2+-ATPase ↓ decrease or inhibition): 35%
